This note sets out measurements from patent publication US9828338B2, “Carbamate derivatives of lactam based N-acylethanolamine acid amidase (NAAA) inhibitors” (The Regents of the University of California, priority 2013, dated 2017).

The target in one assay is T1, r-NAAA (Rattus norvegicus, UniProt Q5KTC7).
T1 construct: Lysosomal NAAA protein preparation was obtained by homogenizing male Sprague-Dawley rat lungs; tissue Charles River (animals); host or cells: male Sprague-Dawley rat lung, soluble lysosomal fraction
T1 sequence (Q5KTC7 34-362): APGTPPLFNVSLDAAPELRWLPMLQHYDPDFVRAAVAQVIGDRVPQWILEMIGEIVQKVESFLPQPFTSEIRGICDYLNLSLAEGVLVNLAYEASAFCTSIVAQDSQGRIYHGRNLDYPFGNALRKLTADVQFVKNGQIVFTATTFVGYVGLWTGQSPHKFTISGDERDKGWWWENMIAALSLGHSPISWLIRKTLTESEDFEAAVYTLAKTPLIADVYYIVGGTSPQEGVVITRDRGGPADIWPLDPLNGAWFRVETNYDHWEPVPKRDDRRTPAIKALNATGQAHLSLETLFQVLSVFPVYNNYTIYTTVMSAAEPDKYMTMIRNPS
The experiment in a line: UPLC/MS r-NAAA assay. It is filed as biochemical. As to the method:
Lysosomal NAAA protein preparation was obtained by homogenizing male Sprague-Dawley rat lungs (Charles River) in 20 mM Tris-HCl buffer pH 7.4 containing 0.32M sucrose. […] Supernatants were then centrifuged at 12,000 xg for 30 min at 4° C. Pellets were then resuspended in PBS pH 7.4 and subjected to a freeze/thaw cycle at −80° C. The suspension was finally centrifuged at 105,000×g for 1 h at 4° C. The supernatant was then used in the enzymatic assay.
NAAA protein preparation was pre-incubated with various concentrations of test compounds or vehicle control in 100 mM NaH2PO4/Citrate buffer, 1% Triton-X, 3 mM DTT (pH 4.5) for 30 min at 37° C. Samples were then incubated with heptadecenoylethanolamide (50 μM, Avanti Polar Lipids) at 37° C. for 30 min. The reaction was terminated by addition of cold methanol containing heptadecanoic acid (NuCheck Prep) as internal standard. Samples were then analyzed by UPLC/MS (Acquity, Waters). […] The column temperature was 40° C. Electrospray ionization was in the negative mode, capillary voltage was 0.5 kV, cone voltage was […], desolvation temperature was 500° C. N2 was used as drying gas at a flow rate of 1000 L/hour and a temperature of 500° C. […] Calibration curves were generated using commercial heptadecenoic acid (NuCheck Prep) Inhibition of NAAA activity was calculated as reduction of heptadecenoic acid in the samples compared to vehicle controls. IC50 values were calculated by non-linear regression analysis of log [concentration]/inhibition curves using GraphPad Prism 5 (GraphPad Software Inc., CA—USA) applying a standard slope curve fitting.

Another assay addresses T2, human NAAA (Homo sapiens, UniProt Q02083).
T2 construct: made in house; host or cells: HEK293 cells, stably transfected; soluble lysosomal fraction used as enzyme source
T2 sequence (Q02083 29-359): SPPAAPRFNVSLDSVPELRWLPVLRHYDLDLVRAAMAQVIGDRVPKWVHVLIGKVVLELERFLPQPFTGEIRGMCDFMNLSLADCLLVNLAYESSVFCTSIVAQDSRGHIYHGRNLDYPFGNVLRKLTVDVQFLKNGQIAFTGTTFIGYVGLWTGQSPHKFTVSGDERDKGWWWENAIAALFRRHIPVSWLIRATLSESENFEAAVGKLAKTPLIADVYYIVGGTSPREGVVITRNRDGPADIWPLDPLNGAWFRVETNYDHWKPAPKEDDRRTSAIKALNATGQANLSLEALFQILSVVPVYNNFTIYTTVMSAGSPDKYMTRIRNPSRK
The experiment in a line: Fluorogenic h-NAAA assay. The format is biochemical. The note with it: for inhibition at […]: @ 2.5 μM, read-out: h-NAAA Fluorogenic assay % inhib. As to the method:
Hek293 cells stably transfected with the human NAAA coding sequence cloned from a human spleen cDNA library were used as enzyme source. Recombinant HEK-hNAAA pellets were resuspended in homogenizing buffer, and sonicated. Samples were centrifuged at 800×g for 15 min at 4° C. and the resultant supernatants were then ultracentrifuged at 12,000×g for 30 min at 4° C. The pellets were resuspended in PBS pH 7.4 on ice and subjected to a freeze/thaw cycle at −80° C. The suspension was finally centrifuged at 105,000×g for 1 h at 4° C. Protein concentration was measured and samples aliquoted and stored at −80° C. until use.
The assay was run in Optiplate 96-wells black plates, in a total reaction volume of 200 μL. NAAA protein preparation (4.0 μg) was pre-incubated for 10 min with various concentrations of test compounds or vehicle control (5% DMSO) in 100 mM citrate/phosphate buffer (pH 4.5) containing 3.0 mM DTT, 0.1% Triton X-100, 0.05% BSA, 150 mM NaCl. N-(4-methyl-2-oxo-chromen-7-yl)-hexadecanamide was used as a substrate (5.0 μM) and the reaction carried over for 30 min at 37° C. The samples were then read in a Perkin Elmer Envision plate reader using an excitation wavelength of 360 nm and emission 460 nm. IC50 values were calculated by non-linear regression analysis of log [concentration]/inhibition curves using GraphPad Prism 5 (GraphPad Software Inc., CA—USA) applying a standard slope curve fitting.

The IC50 is the concentration at which inhibition is half-maximal. Low values mean greater potency, high ones weaker potency. As for `O=C(N[C@H]1CNC1=O)OCCCCc1ccccc1` [Example 13, 4-Phenylbutyl-N-[(3S)-2-oxoazetidin-3-yl]-carbamate], the IC50 against r-NAAA came to 2430 nM; against human NAAA, 930 nM.

Consider `CCCCC1CCC(OC(=O)N[C@H]2CNC2=O)CC1` (mixture of isomers) [Example 61, (1s,4R) and (1r,4S)-(4-Butylcyclohexyl)-N-[(3S)-2-oxoazetidin-3-yl]-carbamate], for which the IC50 on r-NAAA was determined as 700 nM; against human NAAA it was 323 nM.

Consider `O=C(N[C@H]1CNC1=O)OCc1ccc(C(=O)c2ccccc2)cc1` [Example 52, (4-Benzoylphenyl)-methyl-N-[(3S)-2-oxoazetidin-3-yl]-carbamate], for which the IC50 against r-NAAA amounted to 420 nM; on human NAAA, 639 nM.

Regarding `CCCCC/C=C/CCOC(=O)N[C@H]1CNC1=O` [Example 9, [(E)-Non-3-enyl]-N-[(3S)-2-oxoazetidin-3-yl]-carbamate], the figures for the IC50 against r-NAAA and against human NAAA were 180 nM and 78 nM, respectively.

As to `O=C(N[C@H]1CNC1=O)OCCCC1CCCC1` [Example 21, 3-Cyclopentylpropyl-N-[(3S)-2-oxoazetidin-3-yl]-carbamate], the values for the IC50 on r-NAAA and at human NAAA were 220 nM and 97 nM, respectively.

In the case of `CCCCCCCCCCOC(=O)N[C@H]1CNC1=O` [Example 30, Decyl-N-[(3S)-2-oxoazetidin-3-yl]-carbamate], the IC50 against r-NAAA came out at 55 nM; at human NAAA, 25 nM.

For `CCCCCCCCCOC(=O)N[C@H]1CNC1=O` [Example 25, Nonyl-N-[(3S)-2-oxoazetidin-3-yl]-carbamate], the figures for the IC50 against r-NAAA and against human NAAA were 40 nM and 17 nM, respectively.

On to `O=C(N[C@H]1CNC1=O)OCc1ccc(Cc2ccccc2)cc1` [Example 34, (4-Benzylphenyl)-methyl-N-[(3S)-2-oxoazetidin-3-yl]-carbamate], for which the IC50 against r-NAAA amounted to 300 nM; at human NAAA, 230 nM.

Regarding `O=C(N[C@H]1CNC1=O)OCc1ccc(C2CC3CCC2C3)cc1` (mixture of isomers) [Example 56, [4-(1R,2R,4S)- and (1S,2S,4R)-Norbornan-2-yl-phenyl)]-methyl-N-[(3S)-2-oxoazetidin-3-yl]-carbamate], the IC50 worked out at 16 nM on r-NAAA and 39 nM on human NAAA.

For `CCCCOc1ccc(COC(=O)N[C@H]2CNC2=O)cc1` [Example 63, (4-Butoxyphenyl)-methyl-N-[(3S)-2-oxoazetidin-3-yl]-carbamate], the IC50 at r-NAAA came out at 240 nM; at human NAAA, 104 nM.

Regarding `O=C(N[C@H]1CNC1=O)OCc1ccc(I)cc1` [Example 101, (4-Iodophenyl)-methyl-N-[(3S)-2-oxoazetidin-3-yl]-carbamate], the inhibition at […] at human NAAA came out at 95%.

As for `CCCCC/C=C\CCOC(=O)N[C@H]1CNC1=O` [Example 10, [(Z)-Non-3-enyl]-N-[(3S)-2-oxoazetidin-3-yl]-carbamate], the IC50 against r-NAAA was 250 nM; on human NAAA, 76 nM.

Consider `O=C(N[C@H]1CNC1=O)OCc1ccc(C23CC4CC(CC(C4)C2)C3)cc1` [Example 58, [4-(1-Adamantyl)-phenyl]-methyl-N-[(3S)-2-oxoazetidin-3-yl]-carbamate], for which the IC50 against r-NAAA was 2700 nM; against human NAAA it was 2100 nM.

With `O=C(N[C@H]1CNC1=O)OCc1ccc(-c2ccccc2)nc1` [Example 67, (6-Phenyl-3-pyridyl)-methyl-N-[(3S)-2-oxoazetidin-3-yl]-carbamate], at human NAAA, the inhibition at […] came to 60%.

Turning to `O=C(N[C@H]1CNC1=O)OCc1ccc(-c2ccccc2F)cc1` [Example 71, [4-(2-Fluorophenyl)-phenyl]-methyl-N-[(3S)-2-oxoazetidin-3-yl]-carbamate], the IC50 against human NAAA turned out to be 365 nM.

Turning to `COc1ccc(CCCCOC(=O)N[C@H]2CNC2=O)cc1` [Example 22, 4-(4-Methoxyphenyl)-butyl-N-[(3S)-2-oxoazetidin-3-yl]-carbamate], the IC50 turned out to be 790 nM on r-NAAA and 573 nM on human NAAA.

At human NAAA, `O=C(N[C@H]1CNC1=O)OCc1ccc(-c2nc3ccccc3o2)cc1` [Example 54, [4-(1,3-Benzoxazol-2-yl)-phenyl]-methyl-N-[(3S)-2-oxoazetidin-3-yl]-carbamate] came in with an IC50 of 675 nM. In other words, the sub-micromolar range.

In turn, `CCC[C@H]1CC[C@H](COC(=O)N[C@H]2CNC2=O)CC1` [Example 104] came in with an IC50 against human NAAA of 6 nM.

Regarding `Cc1ccc(COC(=O)N[C@H]2CNC2=O)cc1` [Example 94, p-Tolylmethyl-N-[(3S)-2-oxoazetidin-3-yl]-carbamate], inhibition on human NAAA was half-maximal at 1230 nM (IC50).
